Inconclusive results and toxic doses are left out. Rule as the data show it: active = T/C of 150% or more; inactive = T/C below 125%.
Tested on: L1210 leukemia ip in BDF1 mice, survival T/C
Experiment: NCI In Vivo Anticancer Drug Screen. Data for tumor model L1210 Leukemia (intraperitoneal) in B6D2F1 (BDF1) mice
Conditions: endpoint: mean survival time, higher = longer survival
Outline: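 In this screen, tumor-bearing mice given compound are compared to those given vehicle, and their survival values are reported as a treated-to-control quotient.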

[1] = dose: 100.0 mg/kg/injection, schedule: Q04DX002 (ip), vehicle: Klucel (hydroxypropylcellulose) (HPC)
[2] = dose: 200.0 mg/kg/injection, schedule: Q04DX002 (ip), vehicle: Klucel (hydroxypropylcellulose) (HPC)
[3] = dose: 400.0 mg/kg/injection, schedule: Q04DX002 (ip), vehicle: Klucel (hydroxypropylcellulose) (HPC)
[4] = dose: 100.0 mg/kg/injection, schedule: Q01DX009 (ip), vehicle: Klucel (hydroxypropylcellulose) (HPC)
[5] = dose: 200.0 mg/kg/injection, schedule: Q01DX009 (ip), vehicle: Klucel (hydroxypropylcellulose) (HPC)
[6] = dose: 400.0 mg/kg/injection, schedule: Q01DX009 (ip), vehicle: Klucel (hydroxypropylcellulose) (HPC)
[7] = dose: 100.0 mg/kg/injection, schedule: Q01DX001 (ip), vehicle: saline
[8] = dose: 200.0 mg/kg/injection, schedule: Q01DX001 (ip), vehicle: saline
[9] = dose: 400.0 mg/kg/injection, schedule: Q01DX001 (ip), vehicle: saline
[10] = dose: 100.0 mg/kg/injection, schedule: Q04DX003 (ip), vehicle: Klucel (hydroxypropylcellulose) (HPC)
[11] = dose: 200.0 mg/kg/injection, schedule: Q04DX003 (ip), vehicle: Klucel (hydroxypropylcellulose) (HPC)
[12] = dose: 400.0 mg/kg/injection, schedule: Q04DX003 (ip), vehicle: Klucel (hydroxypropylcellulose) (HPC)
[13] = dose: 5.0 mg/kg/injection, schedule: Q01DX009 (ip), vehicle: saline with Tween-80
[14] = dose: 10.0 mg/kg/injection, schedule: Q01DX009 (ip), vehicle: saline with Tween-80
[15] = dose: 20.0 mg/kg/injection, schedule: Q01DX009 (ip), vehicle: saline with Tween-80
[16] = dose: 100.0 mg/kg/injection, schedule: Q01DX001 (ip), vehicle: Klucel (hydroxypropylcellulose) (HPC)
[17] = dose: 200.0 mg/kg/injection, schedule: Q01DX001 (ip), vehicle: Klucel (hydroxypropylcellulose) (HPC)
[18] = dose: 400.0 mg/kg/injection, schedule: Q01DX001 (ip), vehicle: Klucel (hydroxypropylcellulose) (HPC)

Measured: T/C

O=C1N(c2ccccc2)P(Cl)(Cl)(Cl)N1c1ccccc1
inactive: [1] 93 % of control | [2] 110 % of control | [3] 93 % of control

O=C(Nc1ccccc1Cl)OCC#CCOC(=O)Nc1ccccc1Cl
inactive: dose: 100.0 mg/kg/injection, schedule: Q04DX003 (ip), vehicle: saline with Tween-80 102 % of control | dose: 200.0 mg/kg/injection, schedule: Q04DX003 (ip), vehicle: saline with Tween-80 93 % of control | dose: 400.0 mg/kg/injection, schedule: Q04DX003 (ip), vehicle: saline with Tween-80 91 % of control

Cc1ccc(CCCC#N)[nH]1
inactive: dose: 100.0 mg/kg/injection, schedule: Q01DX001 (sc), vehicle: carboxymethylcellulose (CMC) 110 % of control | dose: 200.0 mg/kg/injection, schedule: Q01DX001 (sc), vehicle: carboxymethylcellulose (CMC) 113 % of control

COc1ccc(OC(=O)Nc2cc(Cl)ccc2C)cc1
inactive: [4] 94 % of control | [5] 91 % of control | [6] 94 % of control

Cc1ccccc1NC(=O)Nc1ccc(S(N)(=O)=O)cc1
inactive: [4] 104 % of control | [1] 86 % of control | [5] 101 % of control | [2] 93 % of control | [6] 112 % of control | [3] 86 % of control

CCN(CC)CCCC(C)Nc1ccnc2c1ccc1ccccc12 (centres undefined)
inactive: dose: 50.0 mg/kg/injection, schedule: Q01DX001 (ip), vehicle: saline 98 % of control | [7] 101 % of control | [8] 106 % of control | [9] 112 % of control

Nc1nc(N)nc(-c2ccccc2NC(=O)c2ccccc2[N+](=O)[O-])n1
inactive: [4] 91 % of control | [10] 101 % of control | [5] 96 % of control | [11] 105 % of control | [6] 90 % of control | [12] 100 % of control

CC(CCN1CCOCC1)(CNC1=NCCN1)c1cccc2ccccc12 (centres undefined)
inactive: [13] 100 % of control | [14] 96 % of control | [15] 103 % of control

CC(=O)OC1([N+](=O)[O-])c2ccccc2C2CC1c1ccccc12 (centres undefined)
inactive: dose: 75.0 mg/kg/injection, schedule: Q04DX003 (ip), vehicle: Klucel (hydroxypropylcellulose) (HPC) 112 % of control | [16] 91 % of control | dose: 150.0 mg/kg/injection, schedule: Q04DX003 (ip), vehicle: Klucel (hydroxypropylcellulose) (HPC) 107 % of control | [17] 99 % of control | dose: 300.0 mg/kg/injection, schedule: Q04DX003 (ip), vehicle: Klucel (hydroxypropylcellulose) (HPC) 97 % of control | [18] 100 % of control

O=[N+]([O-])c1ccc(/C=C/c2ccc(OCc3ccccc3)cc2)cc1Cl
inactive: [1] 96 % of control | [2] 96 % of control | [3] 96 % of control

COc1ccccc1-n1c(O)c(N=Nc2ccccc2C)c(=O)n(-c2ccc(Br)cc2)c1=S
inactive: dose: 37.5 mg/kg/injection, schedule: Q01DX001 (ip), vehicle: Klucel (hydroxypropylcellulose) (HPC) 94 % of control | dose: 75.0 mg/kg/injection, schedule: Q01DX001 (ip), vehicle: Klucel (hydroxypropylcellulose) (HPC) 106 % of control | dose: 150.0 mg/kg/injection, schedule: Q01DX001 (ip), vehicle: Klucel (hydroxypropylcellulose) (HPC) 87 % of control

O=C1c2cccc3cccc(c23)C(=O)N1Cc1ccccc1
inactive: [7] 95 % of control | [8] 103 % of control | [9] 91 % of control

COCCOC(=O)C(=O)OCCOC
inactive: dose: 50.0 mg/kg/injection, schedule: Q01DX009 (ip), vehicle: Klucel (hydroxypropylcellulose) (HPC) 95 % of control | [16] 97 % of control | [4] 97 % of control | [17] 90 % of control | [5] 93 % of control

CN(C)c1ccc(/C=C2\CC/C(=C\c3ccc(N(C)C)cc3)C2=O)cc1
inactive: [4] 105 % of control | [5] 97 % of control | [6] 89 % of control

c1cc2c(c(NC3=NCCCO3)c1)CCCC2
inactive: dose: 12.5 mg/kg/injection, schedule: Q01DX009 (ip), vehicle: saline with Tween-80 95 % of control | dose: 25.0 mg/kg/injection, schedule: Q01DX009 (ip), vehicle: saline with Tween-80 106 % of control | dose: 50.0 mg/kg/injection, schedule: Q01DX009 (ip), vehicle: saline with Tween-80 106 % of control | dose: 50.0 mg/kg/injection, schedule: Q04DX003 (ip), vehicle: saline with Tween-80 101 % of control

N#CC(C#N)=C1CCC(=C(C#N)C#N)CC1
inactive: dose: 50.0 mg/kg/injection, schedule: Q04DX003 (ip), vehicle: Klucel (hydroxypropylcellulose) (HPC) 104 % of control | [16] 105 % of control | [10] 121 % of control | [17] 118 % of control | [11] 96 % of control | [18] 105 % of control

CCCCCCCCOc1ccc(C=Nc2ccc(CC)cc2)cc1
inactive: [4] 97 % of control | [5] 86 % of control | [6] 91 % of control

CCCCOc1ccc(NC(N)=Nc2ccc(Cl)cc2)cc1
inactive: dose: 2.5 mg/kg/injection, schedule: Q01DX009 (ip), vehicle: saline with Tween-80 102 % of control | [13] 94 % of control | [14] 96 % of control | dose: 10.0 mg/kg/injection, schedule: Q04DX003 (ip), vehicle: saline with Tween-80 101 % of control | dose: 12.5 mg/kg/injection, schedule: Q01DX001 (ip), vehicle: carboxymethylcellulose (CMC) 109 % of control | [15] 103 % of control | dose: 20.0 mg/kg/injection, schedule: Q04DX003 (ip), vehicle: saline with Tween-80 92 % of control | dose: 25.0 mg/kg/injection, schedule: Q01DX001 (ip), vehicle: carboxymethylcellulose (CMC) 100 % of control | dose: 40.0 mg/kg/injection, schedule: Q04DX003 (ip), vehicle: saline with Tween-80 97 % of control | dose: 50.0 mg/kg/injection, schedule: Q01DX001 (ip), vehicle: carboxymethylcellulose (CMC) 100 % of control | dose: 80.0 mg/kg/injection, schedule: Q04DX003 (ip), vehicle: saline with Tween-80 98 % of control

CCCCC(C)(C)COC(=O)Nc1ccccc1
inactive: dose: 100.0 mg/kg/injection, schedule: Q04DX003 (ip), vehicle: other 92 % of control | dose: 200.0 mg/kg/injection, schedule: Q04DX003 (ip), vehicle: other 104 % of control | dose: 400.0 mg/kg/injection, schedule: Q04DX003 (ip), vehicle: other 101 % of control

CN(C)S(=O)(=O)N(C)C
inactive: [16] 96 % of control | [17] 102 % of control | [18] 102 % of control

CCCCCc1cc[n+](CC(O)c2ccccc2)cc1 (centres undefined)
inactive: [7] 94 % of control

CCOP(=O)(OCC)OCc1ccccc1
inactive: dose: 12.5 mg/kg/injection, schedule: Q04DX003 (ip), vehicle: saline with Tween-80 98 % of control

O=C(NC/C=C/Br)Nc1c2ccccc2nc2ccccc12
inactive: dose: 12.5 mg/kg/injection, schedule: Q01DX009 (ip), vehicle: saline 102 % of control | dose: 25.0 mg/kg/injection, schedule: Q01DX009 (ip), vehicle: saline 102 % of control | dose: 50.0 mg/kg/injection, schedule: Q01DX009 (ip), vehicle: saline 109 % of control

CC1(C)CC1(F)Cl (centres undefined)
inactive: dose: 100.0 mg/kg/injection, schedule: Q01DX001 (ip), vehicle: carboxymethylcellulose (CMC) 103 % of control | dose: 200.0 mg/kg/injection, schedule: Q01DX001 (ip), vehicle: carboxymethylcellulose (CMC) 97 % of control | dose: 400.0 mg/kg/injection, schedule: Q01DX001 (ip), vehicle: carboxymethylcellulose (CMC) 101 % of control

O=C1N(c2cc([N+](=O)[O-])ccc2F)C(=O)C(F)(F)C1(F)F
inactive: dose: 100.0 mg/kg/injection, schedule: Q01DX001 (ip), vehicle: saline with Tween-80 102 % of control | dose: 200.0 mg/kg/injection, schedule: Q01DX001 (ip), vehicle: saline with Tween-80 97 % of control

CCCCCOc1ccc(C=Nc2ccc(C)cc2)cc1
inactive: [4] 98 % of control | [5] 103 % of control

COCP(=O)(OC)OC
inactive: dose: 100.0 mg/kg/injection, schedule: Q04DX003 (ip), vehicle: saline 116 % of control | dose: 200.0 mg/kg/injection, schedule: Q04DX003 (ip), vehicle: saline 94 % of control | dose: 400.0 mg/kg/injection, schedule: Q04DX003 (ip), vehicle: saline 100 % of control

O=C(c1ccc(C(=O)N(c2ccccc2)C2CCCCC2)cc1)N(c1ccccc1)C1CCCCC1
inactive: [4] 96 % of control | [5] 100 % of control | [6] 86 % of control

O=c1ccccn1Cc1ccccc1
inactive: [10] 106 % of control | [11] 117 % of control | [12] 98 % of control

Source: PubChem BioAssay AID248 (DTP/NCI, 2004)
